Test results reported in patent US20230227547A1, “ANTIBODY-PAYLOAD CONJUGATES WITH ENHANCED DELIVERY DOMAIN AND USES THEREOF” (IPROGEN BIOTECH INC., priority 2019, published 2023).

Experiments:
T47D cells [1] = test: Anti-HER2 mAb delivery efficiency using LL37-derived peptide constructs; type: cell-based, human; conditions: peptide conjugated to anti-HER2 mAb light chain, 100 nM Ab, Z-GFP (PEP#6, 35-43) or Goat anti-human IgG-AlexaFluor 488 (PEP#6, 47-94) fluorescence microscopy
Description: (§1) LL37 and LL37-derived peptides were produced synthetically with two additional N-terminal glycine residues (e.g. as shown in SEQ ID NO:2 compared to SEQ ID NO: 1) to enable the sortase reaction. The LL37-derived peptides (PEP#35 to #43, SEQ ID NOs: 13-21) were all dissolved at 10 mg/ml in phosphate buffer saline (PBS) at room temperature, sterile-filtered, and stored at -20° C. freezer. PEP#48 (SEQ ID: 74), PEP#49 (SEQ ID No: 75), and PEP#60 (SEQ ID NO: 105) were dissolved in 20% (v/v) acetonitrile in PBS. PEP#47 (SEQ ID NO: 96), PEP#86 (SEQ ID NO: 78), PEP#98 (SEQ ID NO: 79), PEP#99 (SEQ ID NO: 80), PEP#102 (SEQ ID NO: 82), and PEP#104 (SEQ ID NO: 84) were dissolved in DMSO. PEP#50 (SEQ ID No: 76), PEP#51 (SEQ ID No: 97), PEP#55 (SEQ ID No: 77), PEP#58 (SEQ ID No: 103), PEP#59 (SEQ ID No: 104), PEP#61 (SEQ ID No: 106), PEP#62 (SEQ ID No: 107), PEP#63 (SEQ ID No: 108), PEP#64 (SEQ ID No: 109), PEP#66 (SEQ ID No: 110), and PEP#94 (SEQ ID No: 35) were all dissolved in PBS. […] The reaction was incubated inside a 37° C. incubator for 16 hours, and then EDTA (pH 7.5) was added to 10 mM in the reaction mixture to chelate calcium and stop the reaction.
Delivery assay: The following delivery assay method was used on the anti-HER2 mAbs conjugated to the PEP#6, #35, #36, #37, #38, #39, #40, #41, #42, and #43 described in Table 7. […] The plates were then removed from the incubator, and the culturing media was removed from the adherent cells. The adherent cells were washed gently with an equal volume of ice-cold PBS. Then, the PBS wash was replaced 250 µl of fresh PBS for fluorescence microscope imaging.
At the end of incubation, the adherent target cells were washed twice with ice-cold PBS, fixed with 2% (w/v) formaldehyde in PBS at room temperature for 15 minutes, and washed twice with PBS at room temperature. The fixed adherent target cells were then permeabilized with 0.05% (v/v) Tween-20 in PBS at room temperature for 15 minutes. The permeabilized cells were then incubated with 5% (v/v) FBS, 0.05% (v/v) Tween-20 in PBS at 37 degree Celsius incubator for 30 minutes. The secondary antibody, Goat anti-human IgG-AlexaFluor 488, was added to 5 ug/ml in 5% (v/v) FBS, 0.05% (v/v) Tween-20 in PBS, and incubated with the treated target cells at 37 degree Celsius incubator for 30 minutes. After incubation, the labelled cells were washed twice with PBS, and stored in storage buffer [5% (v/v) FBS in PBS] at 4 degree Celsius until fluorescence microscope imaging. The delivery of mAb and mAb-LL37-derived peptides were determined qualitatively by estimating the green fluorescence intensity emitted from the AlexFluor488-labelled secondary antibody bound to mAb or mAb-LL37-derived peptides.

T47D cells [2] = test: Anti-HER2 mAb delivery efficiency using antimicrobial peptides; type: cell-based, human; conditions: peptide conjugated to anti-HER2 mAb, 100 nM + 100 nM Z-GFP, 4 hours
Description: as §1
The plates were then removed from the incubator, and the culturing media was removed from the adherent cells. […] Then, the PBS wash was replaced 250 µl of fresh PBS for fluorescence microscope imaging.

## LLGDFFRKSKEKIGKEFKRIVQRIKDFLRNLVPRTES [PEP#6 (LL37), two N-terminal glycines added for conjugation]
T47D cells [1]
  Delivery efficiency: +++ (Same as LL37)
T47D cells [2]
  Delivery efficiency: +++ (Same as LL37)
